These results are taken from patent publication US12135326B2 (priority 2019, dated 2024).

Where “and” joins values, the source holds several entries; their conditions need not be identical. Equal entries are not always repeated.

Assay [1] concerns the target T1, WT α-HL nanopore (Staphylococcus aureus, UniProt P09616). Format: binding.
Assay [2] deals with T1, WT α-HL nanopore. In kind it is binding. The source holds these as a separate data set.

T1 sequence (P09616 27-319 limits assumed): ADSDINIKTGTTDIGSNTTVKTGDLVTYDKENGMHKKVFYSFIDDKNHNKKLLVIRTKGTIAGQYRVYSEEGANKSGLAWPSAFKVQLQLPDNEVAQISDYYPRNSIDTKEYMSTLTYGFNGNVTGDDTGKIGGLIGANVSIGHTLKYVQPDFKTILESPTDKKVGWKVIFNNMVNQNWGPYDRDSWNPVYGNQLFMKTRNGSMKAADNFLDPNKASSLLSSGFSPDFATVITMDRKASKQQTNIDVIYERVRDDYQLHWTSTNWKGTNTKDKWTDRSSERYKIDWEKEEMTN

“5′-GATAGTGAGCCAAATTTAAA-3′ [oligomeric ssDNA]”: at WT α-HL nanopore [1], the “mean value of % F (blockade level % Fb, center value±FWHM)” value came out at 0.289±0.175 and the “sensing / translocation through α-HL nanopore by DOP (in words)” value was “able to pass through the α-HL nanopore”.
As for Trimethyl-β-cyclodextrin [TriM-β-CD], on WT α-HL nanopore [2], the “Ip (mean blockage depth)” value is recorded as 0.065±0.002 and the τoff was 0.386 ± 0.392 s. In addition, on WT α-HL nanopore [1], the 1/τoff is 2.515 ± 0.440 s⁻¹ and 2.437 ± 0.449 s⁻¹ and 2.953 ± 0.616 s⁻¹ and 3.640 ± 0.330 s⁻¹; the “mean Fp (mean blockage depth)” value was found to be 0.078±0.010; the “mean τoff (dwell time constant)” value was 0.347 ± 0.067 s.
